Results on 10 compounds are retold here after ChEMBL document CHEMBL1152094, “Res-701-1, synthesis and a reevaluation of its effects on the endothelin receptors” (Bioorg Med Chem Lett, 1995).

Starred links: 1 amine or outer side, 2 acyl side, 3 side chain; linkers in the order of their positions; H or OH if unused. Non-standard residues stand in square brackets, D forms with d. Residues, ends and D or L forms follow the SMILES beside them. X1 = O=C([C@@H](N[*:1])C1c2ccccc2CCc2ccccc21)[*:2]

The target in assay [1] is T1, Endothelin receptor type B (Homo sapiens, UniProt P24530).
T1 sequence (P24530 whole entry): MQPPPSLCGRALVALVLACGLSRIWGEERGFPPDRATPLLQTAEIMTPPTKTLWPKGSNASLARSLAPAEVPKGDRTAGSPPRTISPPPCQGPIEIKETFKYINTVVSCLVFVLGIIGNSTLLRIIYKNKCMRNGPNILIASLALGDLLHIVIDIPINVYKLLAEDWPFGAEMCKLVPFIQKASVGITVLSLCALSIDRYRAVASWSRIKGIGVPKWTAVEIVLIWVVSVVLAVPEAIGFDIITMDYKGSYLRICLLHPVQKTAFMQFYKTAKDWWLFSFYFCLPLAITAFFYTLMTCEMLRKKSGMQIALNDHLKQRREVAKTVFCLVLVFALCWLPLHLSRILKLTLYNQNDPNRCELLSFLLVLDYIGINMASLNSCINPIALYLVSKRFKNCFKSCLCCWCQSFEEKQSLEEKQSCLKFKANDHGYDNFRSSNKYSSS
Description: Binding affinity in Chinese hamster ovary (CHO) cells stably transfected with human endothelin B (ETB) receptor. The format is cell-based.

The target of a further assay is T2, Endothelin-1 receptor (Homo sapiens, UniProt P25101).
T2 sequence (P25101 whole entry): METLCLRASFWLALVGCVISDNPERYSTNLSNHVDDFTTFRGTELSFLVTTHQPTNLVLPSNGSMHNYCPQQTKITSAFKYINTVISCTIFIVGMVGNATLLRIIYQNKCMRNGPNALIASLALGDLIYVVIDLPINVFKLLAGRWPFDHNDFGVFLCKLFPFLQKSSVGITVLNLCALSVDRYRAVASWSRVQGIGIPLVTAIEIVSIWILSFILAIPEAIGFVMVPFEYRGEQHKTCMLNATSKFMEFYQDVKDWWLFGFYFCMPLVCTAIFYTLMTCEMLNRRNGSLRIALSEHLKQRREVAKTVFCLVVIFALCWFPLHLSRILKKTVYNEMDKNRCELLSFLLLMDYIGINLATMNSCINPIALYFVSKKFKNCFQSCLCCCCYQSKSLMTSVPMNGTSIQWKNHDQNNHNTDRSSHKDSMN
Description: Binding affinity in LtK cells stably transfected with human endothelin A (ETA) receptor. The format is cell-based.

The term IC50 denotes the concentration that gives 50% inhibition. Low values mean greater potency in that assay, high ones weaker potency in that assay. As to `C[C@@H]1NC(=O)[C@H]([C@@H](C)O)NC(=O)CNC(=O)[C@H](Cc2c[nH]cn2)NC(=O)[C@H](Cc2c[nH]c3ccccc23)NC(=O)[C@H](CC(N)=O)NC(=O)CNC(=O)C[C@@H](C(=O)N[C@@H](Cc2c[nH]c3ccccc23)C(=O)N[C@@H](Cc2ccccc2)C(=O)N[C@@H](Cc2ccccc2)C(=O)N[C@@H](CC(N)=O)C(=O)N[C@@H](Cc2ccc(O)cc2)C(=O)N[C@@H](Cc2ccc(O)cc2)C(=O)N[C@@H](Cc2c[nH]c3ccccc23)C(=O)O)NC(=O)[C@@H]2CCCN2C1=O` (stereo in doubt; 2), the values for the IC50 (in assay [1]; at Endothelin-1 receptor) were 6.5 µM and 7.8 µM, respectively.
`CC(=O)N[C@H](Cc1c[nH]c2ccccc12)C(=O)N[C@@H](Cc1ccccc1)C(=O)N[C@@H](Cc1ccccc1)C(=O)N[C@@H](CC(N)=O)C(=O)N[C@@H](Cc1ccc(O)cc1)C(=O)N[C@@H](Cc1ccc(O)cc1)C(=O)N[C@@H](Cc1c[nH]c2ccccc12)C(=O)O`: the IC50 in assay [1] came out at 14 µM; on Endothelin-1 receptor, 8.1 µM.
The like results for `C[C@@H]1NC(=O)[C@H]([C@@H](C)O)NC(=O)CNC(=O)[C@H](Cc2c[nH]cn2)NC(=O)[C@H](Cc2c[nH]c3ccccc23)NC(=O)[C@H](CC(N)=O)NC(=O)CNC(=O)C[C@@H](C(=O)N[C@@H](Cc2c[nH]c3ccccc23)C(=O)N[C@@H](Cc2ccccc2)C(=O)N[C@@H](Cc2ccccc2)C(=O)N[C@@H](CC(N)=O)C(=O)N[C@@H](Cc2ccc(O)cc2)C(=O)N[C@@H](Cc2ccc(O)cc2)C(=O)N[C@@H](Cc2c[nH]c3ccccc23)C(=O)O)NC(=O)[C@@H]2CCCN2C1=O` (stereo in doubt; 1) were, in that order, 0.01 µM and greater than 5 µM.
The like results for `NC(=O)C[C@H](NC(=O)[C@H](Cc1ccccc1)NC(=O)[C@@H](N)C1c2ccccc2CCc2ccccc21)C(=O)N[C@@H](Cc1ccc(O)cc1)C(=O)N[C@@H](Cc1ccc(O)cc1)C(=O)N[C@@H](Cc1c[nH]c2ccccc12)C(=O)O` (H-[X1]FNYYW-OH) were, in that order, 13 µM and 9.5 µM.
Consider `NC(=O)C[C@H](NC(=O)[C@H](Cc1ccccc1)NC(=O)[C@@H](N)Cc1ccccc1)C(=O)N[C@@H](Cc1ccc(O)cc1)C(=O)N[C@@H](Cc1ccc(O)cc1)C(=O)N[C@@H](Cc1c[nH]c2ccccc12)C(=O)O` (H-FFNYYW-OH), for which the IC50 (in assay [1]; on Endothelin-1 receptor) was greater than 25 µM each time.
For `CC(=O)N[C@H](C(=O)N[C@@H](Cc1ccccc1)C(=O)N[C@@H](CC(N)=O)C(=O)N[C@@H](Cc1ccc(O)cc1)C(=O)N[C@@H](Cc1ccc(O)cc1)C(=O)N[C@@H](Cc1c[nH]c2ccccc12)C(=O)O)C1c2ccccc2CCc2ccccc21` (Ac-[X1]FNYYW-OH), the IC50 in assay [1] came out at 4.3 µM; on Endothelin-1 receptor it was 1.9 µM.
Turning to `C[C@H](NC(=O)[C@@H](NC(=O)CNC(=O)[C@H](Cc1c[nH]cn1)NC(=O)[C@H](Cc1c[nH]c2ccccc12)NC(=O)[C@H](CC(N)=O)NC(=O)CN)[C@@H](C)O)C(=O)N1CCC[C@H]1C(=O)N[C@@H](CC(=O)O)C(=O)N[C@@H](Cc1c[nH]c2ccccc12)C(=O)N[C@@H](Cc1ccccc1)C(=O)N[C@@H](Cc1ccccc1)C(=O)N[C@@H](CC(N)=O)C(=O)N[C@@H](Cc1ccc(O)cc1)C(=O)N[C@@H](Cc1ccc(O)cc1)C(=O)N[C@@H](Cc1c[nH]c2ccccc12)C(=O)O`, the IC50 (in assay [1]; at Endothelin-1 receptor) was greater than 2.5 µM each time.
`CC(=O)N[C@@H](Cc1c[nH]c2ccccc12)C(=O)N[C@@H](Cc1ccccc1)C(=O)N[C@@H](Cc1ccccc1)C(=O)N[C@@H](CC(N)=O)C(=O)N[C@@H](Cc1ccc(O)cc1)C(=O)N[C@@H](Cc1ccc(O)cc1)C(=O)N[C@@H](Cc1c[nH]c2ccccc12)C(=O)O`: the IC50 worked out at 7.6 µM in assay [1] and 0.25 µM on Endothelin-1 receptor.
On to `NC(=O)C[C@H](NC(=O)[C@H](Cc1ccccc1)NC(=O)[C@H](Cc1ccccc1)NC(=O)[C@@H](N)Cc1c[nH]c2ccccc12)C(=O)N[C@@H](Cc1ccc(O)cc1)C(=O)N[C@@H](Cc1ccc(O)cc1)C(=O)N[C@@H](Cc1c[nH]c2ccccc12)C(=O)O` (H-WFFNYYW-OH), for which the IC50 in assay [1] was 15 µM; at Endothelin-1 receptor it was 2.4 µM.
The like results for `C[C@H](NC(=O)[C@@H](NC(=O)CNC(=O)[C@H](Cc1c[nH]cn1)NC(=O)[C@@H](N)Cc1c[nH]c2ccccc12)[C@@H](C)O)C(=O)N1CCC[C@H]1C(=O)N[C@@H](CC(=O)O)C(=O)N[C@@H](Cc1c[nH]c2ccccc12)C(=O)N[C@@H](Cc1ccccc1)C(=O)N[C@@H](Cc1ccccc1)C(=O)N[C@@H](CC(N)=O)C(=O)N[C@@H](Cc1ccc(O)cc1)C(=O)N[C@@H](Cc1ccc(O)cc1)C(=O)N[C@@H](Cc1c[nH]c2ccccc12)C(=O)O` (H-WHGTAPDWFFNYYW-OH) were, in that order, greater than 2.5 µM and greater than 2.5 µM.
